Reference: publication PMC11995216, “End-to-End Backbone Cyclization Enhances Passive Permeability of bRo5 Oligomeric Depsipeptides with Nonlinear Size Dependence” (ACS Medicinal Chemistry Letters, 2025)
Several values for one entry are separate records, joined by “and”; a condition that tells them apart may be missing. Identical values can stand only once. Like-named read-outs stand apart in the source and are kept apart here. Blank lines part the entries; values can stand above or below the molecule they belong to. Non-standard residues stand in square brackets, D forms with d. Residues, ends and D or L forms follow the SMILES beside them. *: point of attachment. Ahp(2) = CCCCC[C@H](N)C(=O)O; dNMeA = CN[C@H](C)C(=O)O; Boc = CC(C)(C)OC(=O)*; OBn = c1ccc(CO*)cc1

Tests used:
[1] = UV detection
[2] = initial concentration 500 uM, UV detection
[3] = calculated using Supplement Equation 1, UV detection
in vitro = settings: PAMPA, Papp
PAMPA [4] = settings: UV detection, initial concentration 500 uM
PAMPA [5] = settings: UV detection
[6] = PAMPA, 500 uM
[7] = Acceptor Concentration (uM) / [row 1]
[8] = Acceptor Concentration (uM) / [row 2]
[9] = Acceptor Concentration (uM) / [row 3]
[10] = Acceptor Concentration (uM) / [row 4]
[11] = Acceptor Concentration (uM) / [row 5]
[12] = Acceptor Concentration (uM) / [row 6]
[13] = Acceptor Concentration (uM) / [row 7]
[14] = Acceptor Concentration (uM) / [row 8]
[15] = Acceptor Concentration (uM) / [row 9]
[16] = Acceptor Concentration (uM) / [row 10]

% recovery ([1]; Well 1 / %R, Well 1): 94% | % recovery ([1]; Well 2 / %R, Well 2): 87% (2×) and 92% (2×) | % recovery ([1]; Well 3 / %R, Well 3): 99% (2×) and 87% (2×) | % recovery ([1]; Well 4 / %R, Well 4): 93% (2×) and 85% (2×) | % recovery ([1]; Well 5 / %R, Well 5): 87% (2×) and 86% (2×) | %T ([3]; Well 1 / %T, Well 1): 0.25% (2×) and 0.31% (2×) | %T ([3]; Well 2 / %T, Well 2): 0.3% (2×) and 0.25% (2×) | %T ([3]; Well 3 / %T, Well 3): 0.3% (2×) and 0.28% (2×) | %T ([3]; Well 4 / %T, Well 4): 0.31% (2×) and 0.32% (2×) | %T ([3]; Well 5 / %T, Well 5): 0.33% (2×) and 0.26% (2×) | Papp at 500 uM (in vitro): 1.94 ± 0.22 ×10⁻⁶ cm/s | Papp (PAMPA [5]; Papp (x 10^-6 cm/s) / [row 1]): 1.61 ×10⁻⁶ cm/s | Papp (PAMPA [5]; Papp (x 10^-6 cm/s) / [row 2]): 2.02 ×10⁻⁶ cm/s | Papp (PAMPA [5]; Papp (x 10^-6 cm/s) / [row 3]): 2.01 ×10⁻⁶ cm/s | Papp (PAMPA [5]; Papp (x 10^-6 cm/s) / [row 4]): 2.03 ×10⁻⁶ cm/s | Papp (PAMPA [5]; Papp (x 10^-6 cm/s) / [row 5]): 2.24 ×10⁻⁶ cm/s | Papp (PAMPA [5]; Papp (x 10^-6 cm/s) / [row 6]): 2.09 ×10⁻⁶ cm/s | Papp (PAMPA [5]; Papp (x 10^-6 cm/s) / [row 7]): 1.63 ×10⁻⁶ cm/s | Papp (PAMPA [5]; Papp (x 10^-6 cm/s) / [row 8]): 1.88 ×10⁻⁶ cm/s | Papp (PAMPA [5]; Papp (x 10^-6 cm/s) / [row 9]): 2.15 ×10⁻⁶ cm/s | Papp (PAMPA [5]; Papp (x 10^-6 cm/s) / [row 10]): 1.75 ×10⁻⁶ cm/s | Papp (PAMPA [5]; Papp (x 10^-6 cm/s) / experiment 1): 1.61 ×10⁻⁶ cm/s | Papp (PAMPA [5]; Papp (x 10^-6 cm/s) / experiment 2): 2.02 ×10⁻⁶ cm/s | Papp (PAMPA [5]; Papp (x 10^-6 cm/s) / experiment 3): 2.01 ×10⁻⁶ cm/s | Papp (PAMPA [5]; Papp (x 10^-6 cm/s) / experiment 4): 2.03 ×10⁻⁶ cm/s | Papp (PAMPA [5]; Papp (x 10^-6 cm/s) / experiment 5): 2.24 ×10⁻⁶ cm/s | Papp (PAMPA [5]; Papp (x 10^-6 cm/s) / experiment 6): 2.09 ×10⁻⁶ cm/s | Papp (PAMPA [5]; Papp (x 10^-6 cm/s) / experiment 7): 1.63 ×10⁻⁶ cm/s | Papp (PAMPA [5]; Papp (x 10^-6 cm/s) / experiment 8): 1.88 ×10⁻⁶ cm/s | Papp (PAMPA [5]; Papp (x 10^-6 cm/s) / experiment 9): 2.15 ×10⁻⁶ cm/s | Papp (PAMPA [5]; Papp (x 10^-6 cm/s) / experiment 10): 1.75 ×10⁻⁶ cm/s | Δ % diffusion [6]: ↑14%
Structure (SMILES): CCCCC[C@H](OC(=O)[C@@H](C)N(C)C(=O)[C@H](CCCCC)OC(=O)[C@@H](C)N(C)C(=O)[C@H](CCCCC)OC(=O)[C@@H](C)N(C)C(=O)[C@H](CCCCC)OC(=O)[C@@H](C)N(C)C(=O)OC(C)(C)C)C(=O)OCc1ccccc1 [Compound L1.4]
donor concentration after incubation ([2]; Well 1 / [donor], Well 1): 417 µM and 390 µM | donor concentration after incubation ([2]; Well 1 / [donor], Well 1, standard curve): 417 µM and 390 µM | donor concentration after incubation ([2]; Well 2 / [donor], Well 2): 379 µM and 406 µM | donor concentration after incubation ([2]; Well 2 / [donor], Well 2, standard curve): 379 µM and 406 µM | donor concentration after incubation ([2]; Well 3 / [donor], Well 3): 432 µM and 382 µM | donor concentration after incubation ([2]; Well 3 / [donor], Well 3, standard curve): 432 µM and 382 µM | donor concentration after incubation ([2]; Well 4 / [donor], Well 4): 404 µM and 364 µM | donor concentration after incubation ([2]; Well 4 / [donor], Well 4, standard curve): 404 µM and 364 µM | donor concentration after incubation ([2]; Well 5 / [donor], Well 5): 372 µM and 379 µM | donor concentration after incubation ([2]; Well 5 / [donor], Well 5, standard curve): 372 µM and 379 µM | Acceptor Concentration (PAMPA [4]; [7]): 52.3 µM | Acceptor Concentration (PAMPA [4]; [8]): 57.9 µM | Acceptor Concentration (PAMPA [4]; [9]): 64.4 µM | Acceptor Concentration (PAMPA [4]; [10]): 61.4 µM | Acceptor Concentration (PAMPA [4]; [11]): 62.2 µM | Acceptor Concentration (PAMPA [4]; [12]): 61.3 µM | Acceptor Concentration (PAMPA [4]; [13]): 51.5 µM | Acceptor Concentration (PAMPA [4]; [14]): 55 µM | Acceptor Concentration (PAMPA [4]; [15]): 59.1 µM | Acceptor Concentration (PAMPA [4]; [16]): 51.7 µM | Acceptor Concentration (PAMPA [4]; Acceptor Concentration (uM) / experiment 1): 52.3 µM | Acceptor Concentration (PAMPA [4]; Acceptor Concentration (uM) / experiment 2): 57.9 µM | Acceptor Concentration (PAMPA [4]; Acceptor Concentration (uM) / experiment 3): 64.4 µM | Acceptor Concentration (PAMPA [4]; Acceptor Concentration (uM) / experiment 4): 61.4 µM | Acceptor Concentration (PAMPA [4]; Acceptor Concentration (uM) / experiment 5): 62.2 µM | Acceptor Concentration (PAMPA [4]; Acceptor Concentration (uM) / experiment 6): 61.3 µM | Acceptor Concentration (PAMPA [4]; Acceptor Concentration (uM) / experiment 7): 51.5 µM | Acceptor Concentration (PAMPA [4]; Acceptor Concentration (uM) / experiment 8): 55 µM | Acceptor Concentration (PAMPA [4]; Acceptor Concentration (uM) / experiment 9): 59.1 µM | Acceptor Concentration (PAMPA [4]; Acceptor Concentration (uM) / experiment 10): 51.7 µM

% recovery ([1]; Well 1 / %R, Well 1): 84% and 83% | % recovery ([1]; Well 2 / %R, Well 2): 89% | % recovery ([1]; Well 3 / %R, Well 3): 90% and 91% | % recovery ([1]; Well 4 / %R, Well 4): 90% | % recovery ([1]; Well 5 / %R, Well 5): 82% and 92% | %T ([3]; Well 1 / %T, Well 1): 0.61% and 0.63% | %T ([3]; Well 2 / %T, Well 2): 0.61% and 0.6% | %T ([3]; Well 3 / %T, Well 3): 0.58% and 0.63% | %T ([3]; Well 4 / %T, Well 4): 0.6% and 0.62% | %T ([3]; Well 5 / %T, Well 5): 0.61% and 0.64% | Papp (PAMPA [5]; Papp (x 10^-6 cm/s) / [row 1]): 2.47 ×10⁻⁶ cm/s | Papp (PAMPA [5]; Papp (x 10^-6 cm/s) / [row 2]): 2.25 ×10⁻⁶ cm/s | Papp (PAMPA [5]; Papp (x 10^-6 cm/s) / [row 3]): 2.11 ×10⁻⁶ cm/s | Papp (PAMPA [5]; Papp (x 10^-6 cm/s) / [row 4]): 2.43 ×10⁻⁶ cm/s | Papp (PAMPA [5]; Papp (x 10^-6 cm/s) / [row 5]): 2.68 ×10⁻⁶ cm/s | Papp (PAMPA [5]; Papp (x 10^-6 cm/s) / [row 6]): 3.13 ×10⁻⁶ cm/s | Papp (PAMPA [5]; Papp (x 10^-6 cm/s) / [row 7]): 2.4 ×10⁻⁶ cm/s | Papp (PAMPA [5]; Papp (x 10^-6 cm/s) / [row 8]): 2.43 ×10⁻⁶ cm/s | Papp (PAMPA [5]; Papp (x 10^-6 cm/s) / [row 9]): 2.64 ×10⁻⁶ cm/s | Papp (PAMPA [5]; Papp (x 10^-6 cm/s) / [row 10]): 2.27 ×10⁻⁶ cm/s | Acceptor Concentration, Ave [6]: 58.3 µM | Δ % diffusion [6]: ↑6%
Structure (SMILES): CCCCC[C@H](NC(=O)[C@@H](C)N(C)C(=O)[C@H](CCCCC)NC(=O)[C@@H](C)N(C)C(=O)[C@H](CCCCC)NC(=O)[C@@H](C)N(C)C(=O)[C@H](CCCCC)NC(=O)[C@@H](C)N(C)C(=O)OC(C)(C)C)C(=O)OCc1ccccc1 [Compound L2.5] (Boc-[dNMeA][Ahp(2)][dNMeA][Ahp(2)][dNMeA][Ahp(2)][dNMeA][Ahp(2)]-OBn)
donor concentration after incubation ([2]; Well 1 / [donor], Well 1): 362 µM and 345 µM | donor concentration after incubation ([2]; Well 2 / [donor], Well 2): 391 µM and 386 µM | donor concentration after incubation ([2]; Well 3 / [donor], Well 3): 400 µM and 397 µM | donor concentration after incubation ([2]; Well 4 / [donor], Well 4): 391 µM and 376 µM | donor concentration after incubation ([2]; Well 5 / [donor], Well 5): 351 µM and 405 µM | Acceptor Concentration (PAMPA [4]; [7]): 55.5 µM | Acceptor Concentration (PAMPA [4]; [8]): 54.4 µM | Acceptor Concentration (PAMPA [4]; [9]): 52.1 µM | Acceptor Concentration (PAMPA [4]; [10]): 59 µM | Acceptor Concentration (PAMPA [4]; [11]): 58.4 µM | Acceptor Concentration (PAMPA [4]; [12]): 67.8 µM | Acceptor Concentration (PAMPA [4]; [13]): 57.4 µM | Acceptor Concentration (PAMPA [4]; [14]): 59.8 µM | Acceptor Concentration (PAMPA [4]; [15]): 61.8 µM | Acceptor Concentration (PAMPA [4]; [16]): 56.8 µM
